The text below walks through data of patent publication US7189859B2, “Radiolabelled phenylethyl imidazole carboxylic acid ester derivatives” (priority 2003, dated 2007).

The structures appear in SMILES notation. Like-named read-outs stand apart in the source and are kept apart here.

In data set [1] the test system is steroid 11β-hydroxylation. As to conditions: human adrenocortical tissue slices; cited from earlier work.
Data set [2] addresses T1, cytochrome P-45011β enzyme system (Rattus norvegicus, UniProt P15393).
T1 construct: Whole adrenals from adult male Wistar rats were homogenized; from tissue; host or cells: whole adrenals of adult male Wistar rats, washed membrane pellet
T1 sequence (P15393 25-499): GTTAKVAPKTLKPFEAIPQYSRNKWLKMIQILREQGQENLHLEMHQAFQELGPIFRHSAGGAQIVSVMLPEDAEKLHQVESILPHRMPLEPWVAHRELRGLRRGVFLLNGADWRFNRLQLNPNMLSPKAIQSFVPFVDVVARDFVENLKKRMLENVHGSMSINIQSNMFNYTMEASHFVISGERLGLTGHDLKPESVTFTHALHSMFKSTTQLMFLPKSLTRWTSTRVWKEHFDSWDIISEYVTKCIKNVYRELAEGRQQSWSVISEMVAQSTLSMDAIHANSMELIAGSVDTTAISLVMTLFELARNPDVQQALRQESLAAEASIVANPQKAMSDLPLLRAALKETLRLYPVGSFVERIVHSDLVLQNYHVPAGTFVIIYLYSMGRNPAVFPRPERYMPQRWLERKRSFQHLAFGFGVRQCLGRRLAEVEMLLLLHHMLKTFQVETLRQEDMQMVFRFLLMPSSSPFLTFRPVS
In words: Displacement of [^131I]MTO binding. The method, then:
Test compounds were incubated at 0.01–100 nM concentrations. Non-specific binding was determined with etomidate (10 μM). […] The filters containing membranes with bound radioligand were measured in a gamma-spectrometer.
IC50 values (the molar concentration of compound necessary to inhibit binding by 50%) were determined for each test compound by non-linear, least squares regression analysis, using an iterative curve fitting routine.

The test system of a further data set is adrenals. Put plainly: In vivo evaluation of ^131I-MTO (organ distribution after tail vein injection). The note with it: rats. The method, then: Method: ^131I-MTO was used with a radiochemical purity >99% and a specific activity of 57 GBq/μmol. The radiotracer (0.5–1.1 MBq; […]) was injected into the tail vein of rats (female, 180–220 gram). Groups of four rats were sacrifized at specified times up to 24 hours post injection. The organs were excised and weighed, the radioactivity was measured at constant geometry using a gamma-spectrometer with a Nal(TI)-crystal. The data were expressed as percent of injected dose (ID) per organ and as percent of ID per gram tissue.

Data set [3] concerns the target T2, rat adrenal membranes (cytochrome P-450 β-hydroxylase) (Rattus norvegicus, UniProt P15393).
T2 sequence (P15393 25-499): T1 sequence (P15393 25-499)
In words: [^131I]MTO binding to rat adrenal membranes (association, dissociation, saturation). The note with it: for observable association rate constant v: data pooled from 7 experiments. The method, then: Whole adrenals from adult male Wistar rats were homogenized in 10 mM K2HPO4/10 mM HEPES (pH 7.1) with a glass/teflon piston (Potter-type). The homogenate was centrifuged at 35.000×g for 10 min, the pellet was resuspended in fresh buffer and centrifuged again. Membranes were washed 2 more times and stored as aliquots at −80° C.
After incubation, membranes with bound radioligand were isolated by filtration through Whatman GF/B glass fiber filters (presoaked in buffer), followed by 2×4 mL washings with buffer, then filters were measured in a gamma-spectrometer.
For dissociation experiments, membranes were fully equilibrated with 2 nM radioligand, and the dissociation was initiated by the addition of excess unlabelled 4-iodo-MTO and stepwise filtration at 15 sec intervals.
For saturation studies 2–100 nM 4-iodo-MTO carrier was used. See summary in FIG. 1. […] Incubation for 30 minutes using 10 mM K2HPO4/10 mM HEPES, 150 mM NaCl (pH 7.1).

Data set [4] deals with lesions of adrenocortical origin. As to conditions: clinical; cited from earlier work.
Where [5] appears, read: read-out: IC50 (inhibition of [^131I]MTO binding), rat adrenal membranes.

For `COC(=O)c1cncn1C(C)c1ccccc1` (stereo not drawn) [metomidate], in data set [1], the “inhibition of steroid 11β-hydroxylation” value is given as “equally potent inhibitor”. In addition, the IC50 in data set [2] was found to be 3.7 nM.
With `CCOC(=O)c1cncn1[C@H](C)c1ccccc1` [etomidate], the “inhibition of steroid 11β-hydroxylation” value in data set [1] was “block the conversion of 11-deoxycortisol to cortisol and of 11-deoxycorticosterone (DOC) to corticosterone and aldosterone”. Moreover, the IC50 in data set [2] was 1.1 nM.
As to `COC(=O)c1cncn1[C@H](C)c1ccc(I)cc1` [Example 4-iodo-MTO, (R)-methyl 3-[1-(4-iodophenyl)ethyl]-3H-imidazole-4-carboxylate], the IC50 in data set [2] came out at 9 nM.
As for `COC(=O)c1cncn1[C@H](C)c1ccc([131I])cc1` [[^131I]MTO, (R)-3-[1-(4-[^131I]iodophenyl)ethyl]-3H-imidazole-4-carboxylic acid methyl ester], the “duration of radioactivity plateau in the adrenals” value with adrenals (intravenous (tail vein)) was 2 h. Besides, in the data set on adrenals (intravenous (tail vein)), the route of elimination entry was “eliminated both by hepatobiliary and by renal excretion”. In the data set with adrenals (intravenous (tail vein)), the “specific uptake in the adrenals” value is on record as “approximately 10 % ID/g tissue”. Besides, the “time post injection up to which renal activity is increasing” value in the data set with adrenals (renal activity attributed to ^131I-ETO-acid) is “up to 4 hours”. The “observable association rate constant v” value worked out at 0.65 min⁻¹ in data set [3] (ligand concentration 2 nM 4-iodo-MTO), 1.23 min⁻¹ in data set [3] (ligand concentration 4 nM 4-iodo-MTO) and 1.34 min⁻¹ in data set [3] (ligand concentration 11 nM 4-iodo-MTO).
In the case of `CC(c1ccccc1)n1cncc1C(=O)O` (stereo not drawn) [ETO-acid], in data set [2] (setting [5]), the IC50 was found to be 123000 nM.
The same measure, in the same setting: then `C[C@H](c1ccccc1)n1cncc1C(=O)OCCF` [FETO], with 3 nM.
In data set [2], `CC(C)(C(=O)c1cccnc1)c1cccnc1` [Metyrapone] showed an IC50 of 1200 nM.
In turn, `COC(=O)c1cncn1[C@H](C)c1ccc(I)cc1` [[^131I]MTO, (R)-3-[1-(4-[^131I]iodophenyl)ethyl]-3H-imidazole-4-carboxylic acid methyl ester] came in with a Kd in data set [3] (saturation analysis, 2–100 nM 4-iodo-MTO carrier, 30 minutes incubation, pH 7.1, (15)) of 7.4 ± 2.8 nM.
Regarding `COC(=O)c1cncn1C(C)c1ccccc1` (stereo not drawn) [[O-methyl-^11C]metomidate], in data set [4], the “uptake in lesions of adrenocortical origin, including adenomas” value is given as “high uptake” and the “uptake in lesions of non-adrenocortical origin” value was “very low uptake”.

As usually defined, the IC50 is the midpoint of a concentration-inhibition curve. A word on the Kd: it is the free concentration of one partner at which half of the binding sites on the other are occupied at equilibrium, for simple one-to-one binding.
